One assay has as its target B-Raf (Homo sapiens, UniProt P15056). As to the kind of experiment: Luciferase-coupled chemiluminescence kinase assay (ATP consumption), B-Raf. In kind it is biochemical. The gist of the method: (§1)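 Pre-incub. kinase […] + cpd, 30 min RT (20 mM Tris pH 7.5, 10 mM MgCl2, 0.03% TX-100, 1 mM DTT). Start w/ ATP, 3 h ambient. Luciferase-luciferin mix added and luminescence read. Total ATP use 25-60%. IC50 derived.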

The target of a further assay is c-Raf (Homo sapiens, UniProt P04049). As to the kind of experiment: Luciferase-coupled chemiluminescence kinase assay (ATP consumption), c-Raf. In kind it is biochemical. The gist of the method: as §1
The mark [1] stands for this setting: read-out: bRaf (inhibition indicated as IC50).
Setting [2] is: read-out: cRaf-1 (inhibition indicated as IC50).

SMILES strings stand for the structures. Like-named read-outs stand apart in the source and are kept apart here.

B-Raf, sequence (P15056 whole entry): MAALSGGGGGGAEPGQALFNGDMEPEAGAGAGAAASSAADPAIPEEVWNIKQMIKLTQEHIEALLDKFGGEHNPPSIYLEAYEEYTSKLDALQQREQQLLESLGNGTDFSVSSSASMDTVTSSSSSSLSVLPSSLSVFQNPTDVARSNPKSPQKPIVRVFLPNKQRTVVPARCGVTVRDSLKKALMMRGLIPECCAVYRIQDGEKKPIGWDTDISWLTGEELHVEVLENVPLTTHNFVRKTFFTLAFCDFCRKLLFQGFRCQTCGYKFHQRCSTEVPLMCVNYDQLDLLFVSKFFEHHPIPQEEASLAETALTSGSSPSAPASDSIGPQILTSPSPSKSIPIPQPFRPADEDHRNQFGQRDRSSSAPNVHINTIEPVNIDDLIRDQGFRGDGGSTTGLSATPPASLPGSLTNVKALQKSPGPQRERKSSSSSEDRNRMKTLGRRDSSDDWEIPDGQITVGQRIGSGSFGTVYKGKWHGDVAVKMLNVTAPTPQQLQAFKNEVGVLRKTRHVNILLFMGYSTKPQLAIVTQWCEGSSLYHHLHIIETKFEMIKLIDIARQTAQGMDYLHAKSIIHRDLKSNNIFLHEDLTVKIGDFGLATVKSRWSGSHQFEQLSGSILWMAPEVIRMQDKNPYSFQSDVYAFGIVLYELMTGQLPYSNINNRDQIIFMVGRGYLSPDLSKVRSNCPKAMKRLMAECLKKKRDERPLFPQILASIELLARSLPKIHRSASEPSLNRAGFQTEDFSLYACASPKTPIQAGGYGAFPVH
c-Raf, sequence (P04049 whole entry): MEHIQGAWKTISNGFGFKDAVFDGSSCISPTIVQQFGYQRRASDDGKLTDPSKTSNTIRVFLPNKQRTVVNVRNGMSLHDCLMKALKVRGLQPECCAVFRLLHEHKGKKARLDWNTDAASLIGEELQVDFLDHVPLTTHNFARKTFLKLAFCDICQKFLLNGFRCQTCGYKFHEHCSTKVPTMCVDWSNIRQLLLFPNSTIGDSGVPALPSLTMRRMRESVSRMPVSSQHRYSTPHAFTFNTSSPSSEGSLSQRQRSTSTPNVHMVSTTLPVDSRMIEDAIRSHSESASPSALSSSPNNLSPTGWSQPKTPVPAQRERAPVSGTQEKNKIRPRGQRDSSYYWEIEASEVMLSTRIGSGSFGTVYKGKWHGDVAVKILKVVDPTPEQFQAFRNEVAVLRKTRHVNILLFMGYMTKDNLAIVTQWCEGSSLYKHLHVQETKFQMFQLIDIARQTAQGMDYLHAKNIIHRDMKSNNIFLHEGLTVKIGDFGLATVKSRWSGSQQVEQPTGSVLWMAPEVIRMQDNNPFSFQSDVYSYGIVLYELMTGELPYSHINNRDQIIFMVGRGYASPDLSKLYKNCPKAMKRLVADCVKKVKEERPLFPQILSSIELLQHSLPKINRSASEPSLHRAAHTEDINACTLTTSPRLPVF

Usually IC50 stands for the concentration that inhibits the measured activity by half. Regarding `O=C(CCCN1CCCCC1)Nc1nc2cc(C3(O)c4ccccc4C(=O)N3c3cccc(Oc4ccccc4)c3)ccc2[nH]1` (stereo not shown) [Entry 319, N-(5-{1-hydroxy-3-oxo-2-[3-(phenyloxy)phenyl]-2,3-dihydro-1H-isoindol-1-yl}-1H-benzimidazol-2-yl)-4-piperidin-1-ylbutanamide], the IC50 on B-Raf (setting [1]) and at c-Raf (setting [2]) was below 100 nM throughout.
For the molecule `O=C1COc2ccc(C3(O)c4ccccc4C(=O)N3Cc3ccccc3Br)cc2N1` (stereo not shown) [Entry 37, 6-{2-[(2-bromophenyl)methyl]-1-hydroxy-3-oxo-2,3-dihydro-1H-isoindol-1-yl}-2H-1,4-benzoxazin-3(4H)-one], the IC50 on B-Raf (read-out: bRaf IC50) and at c-Raf (read-out: cRaf-1 IC50) was at least 10000 nM each time.
In the case of `COC(=O)Nc1nc2ccc(C3(O)c4ccccc4C(=O)N3c3cccc(OC)c3F)cc2[nH]1` (stereo not shown) [Entry 367, methyl (6-{2-[2-fluoro-3-(methyloxy)phenyl]-1-hydroxy-3-oxo-2,3-dihydro-1H-isoindol-1-yl}-1H-benzimidazol-2-yl)carbamate], the IC50 on B-Raf (setting [1]) is below 100 nM; at c-Raf (setting [2]), 100 to 1000 nM.
As for `CC(C)OC(=O)Nc1nc2cc(C3(O)c4ccccc4C(=O)N3Cc3ccccc3)ccc2[nH]1` (stereo not shown) [Entry 110, 1-methylethyl {5-[1-hydroxy-3-oxo-2-(phenylmethyl)-2,3-dihydro-1H-isoindol-1-yl]-1H-benzimidazol-2-yl}carbamate], the IC50 at B-Raf (read-out: bRaf IC50) and at c-Raf (read-out: cRaf-1 IC50) was below 100 nM in each case.
As for `O=C1COc2ccc(C3(O)c4ccccc4C(=O)N3c3ccc(F)c(F)c3)cc2N1` (stereo not shown) [Entry 58, 6-[2-(3,4-difluorophenyl)-1-hydroxy-3-oxo-2,3-dihydro-1H-isoindol-1-yl]-2H-1,4-benzoxazin-3(4H)-one], the IC50 on B-Raf (read-out: bRaf IC50) and on c-Raf (read-out: cRaf-1 IC50) was 1000 to 10000 nM in each case.
On to `COC(=O)Nc1nc2cc(C3(O)c4ccccc4C(=O)N3CCc3ccccc3)ccc2[nH]1` (stereo not shown) [Entry 99, methyl {5-[1-hydroxy-3-oxo-2-(2-phenylethyl)-2,3-dihydro-1H-isoindol-1-yl]-1H-benzimidazol-2-yl}carbamate], for which the IC50 on B-Raf (read-out: bRaf IC50) and on c-Raf (read-out: cRaf-1 IC50) was 1000 to 10000 nM throughout.
Turning to `O=C(Nc1nc2ccc(C3(O)c4ccccc4C(=O)N3c3cccc(Cl)c3F)cc2[nH]1)OCCF` (stereo not shown) [Entry 341, 2-fluoroethyl {6-[2-(3-chloro-2-fluorophenyl)-1-hydroxy-3-oxo-2,3-dihydro-1H-isoindol-1-yl]-1H-benzimidazol-2-yl}carbamate], the IC50 on B-Raf (setting [1]) and on c-Raf (setting [2]) was below 100 nM each time.
Consider `O=C(Nc1nc2cc(C3(O)c4ccccc4C(=O)N3Cc3ccccc3)ccc2[nH]1)OCC1CC1` (stereo not shown) [Entry 187, cyclopropylmethyl {5-[1-hydroxy-3-oxo-2-(phenylmethyl)-2,3-dihydro-1H-isoindol-1-yl]-1H-benzimidazol-2-yl}carbamate], for which the IC50 on B-Raf (read-out: bRaf IC50) and at c-Raf (read-out: cRaf-1 IC50) was below 100 nM throughout.
Regarding `O=C1c2ccccc2C(O)(c2ccc3[nH]c(Nc4ccccc4)nc3c2)N1c1cccc(Cl)c1F` (stereo not shown) [Entry 348, 2-(3-chloro-2-fluorophenyl)-3-hydroxy-3-[2-(phenylamino)-1H-benzimidazol-5-yl]-2,3-dihydro-1H-isoindol-1-one], the IC50 on B-Raf (setting [1]) and on c-Raf (setting [2]) was 1000 to 10000 nM throughout.
Take `COC(=O)Nc1nc2cc(C3(O)c4ccccc4C(=O)N3Cc3ccc(OC)cc3)ccc2[nH]1` (stereo not shown) [Entry 118, methyl [5-(1-hydroxy-2-{[4-(methyloxy)phenyl]methyl}-3-oxo-2,3-dihydro-1H-isoindol-1-yl)-1H-benzimidazol-2-yl]carbamate]: the IC50 on B-Raf (read-out: bRaf IC50) and on c-Raf (read-out: cRaf-1 IC50) was at least 10000 nM throughout.
In the case of `O=C(Nc1nc2cc(C3(O)c4ccccc4C(=O)N3Cc3ccccc3)ccc2[nH]1)OCC1CCCO1` (stereo not shown) [Entry 186, tetrahydrofuran-2-ylmethyl {5-[1-hydroxy-3-oxo-2-(phenylmethyl)-2,3-dihydro-1H-isoindol-1-yl]-1H-benzimidazol-2-yl}carbamate], the IC50 on B-Raf (read-out: bRaf IC50) and at c-Raf (read-out: cRaf-1 IC50) was below 100 nM each time.
With `COC(=O)Nc1nc2cc(C3(O)c4ccccc4C(=O)N3c3cccc(C#N)c3)ccc2[nH]1` (stereo not shown) [Entry 225, methyl {5-[2-(3-cyanophenyl)-1-hydroxy-3-oxo-2,3-dihydro-1H-isoindol-1-yl]-1H-benzimidazol-2-yl}carbamate], the IC50 at B-Raf (read-out: bRaf IC50) and at c-Raf (read-out: cRaf-1 IC50) was 100 to 1000 nM in each case.
In the case of `O=C(Nc1nc2ccc(C3(O)c4ccccc4C(=O)N3c3cccc(Cl)c3F)cc2[nH]1)OCCN1CCCC1=O` (stereo not shown) [Entry 323, 2-(2-oxopyrrolidin-1-yl)ethyl {6-[2-(3-chloro-2-fluorophenyl)-1-hydroxy-3-oxo-2,3-dihydro-1H-isoindol-1-yl]-1H-benzimidazol-2-yl}carbamate], the IC50 at B-Raf (setting [1]) and at c-Raf (setting [2]) was below 100 nM each time.
With `COC(=O)Nc1nc2ccc(C3(O)c4c(F)ccc(F)c4C(=O)N3c3cccc(Br)c3)cc2[nH]1` (stereo not shown) [Entry 296, methyl {6-[2-(3-bromophenyl)-4,7-difluoro-1-hydroxy-3-oxo-2,3-dihydro-1H-isoindol-1-yl]-1H-benzimidazol-2-yl}carbamate], the IC50 at B-Raf (setting [1]) and at c-Raf (setting [2]) was below 100 nM each time.
For the molecule `O=C(Nc1nc2ccc(C3(O)c4ccccc4C(=O)N3c3cccc(Cl)c3F)cc2[nH]1)OCC(F)(F)F` (stereo not shown) [Entry 345, 2,2,2-trifluoroethyl {6-[2-(3-chloro-2-fluorophenyl)-1-hydroxy-3-oxo-2,3-dihydro-1H-isoindol-1-yl]-1H-benzimidazol-2-yl}carbamate], the IC50 on B-Raf (setting [1]) and on c-Raf (setting [2]) was below 100 nM in each case.
In the case of `CNC(=O)Nc1nc2cc(C3(O)c4ccccc4C(=O)N3Cc3ccccc3)ccc2[nH]1` (stereo not shown) [Entry 171, N-{5-[1-hydroxy-3-oxo-2-(phenylmethyl)-2,3-dihydro-1H-isoindol-1-yl]-1H-benzimidazol-2-yl}-N′-methylurea], the IC50 at B-Raf (read-out: bRaf IC50) and on c-Raf (read-out: cRaf-1 IC50) was below 100 nM each time.
Turning to `COC(=O)Nc1nc2ccc(C(=O)c3ccccc3C(=O)Nc3cccc(Cl)c3F)cc2[nH]1` [Entry 407, methyl {6-[(2-{[(3-chloro-2-fluorophenyl)amino]carbonyl}phenyl)carbonyl]-1H-benzimidazol-2-yl}carbamate], the IC50 at B-Raf (setting [1]) and at c-Raf (setting [2]) was below 100 nM each time.
Turning to `C=Cc1cccc(N2C(=O)c3ccccc3C2(O)c2ccc3[nH]c(NC(=O)OC)nc3c2)c1` (stereo not shown) [Entry 257, methyl {5-[2-(3-ethenylphenyl)-1-hydroxy-3-oxo-2,3-dihydro-1H-isoindol-1-yl]-1H-benzimidazol-2-yl}carbamate], the IC50 at B-Raf (read-out: bRaf IC50) and at c-Raf (read-out: cRaf-1 IC50) was below 100 nM in each case.
On to `COC(=O)Nc1nc2cc(C(=O)c3ccccc3NC(=O)Nc3ccccc3)ccc2[nH]1` [Entry 269, methyl {5-[(2-{[(phenylamino)carbonyl]amino}phenyl)carbonyl]-1H-benzimidazol-2-yl}carbamate], for which the IC50 at B-Raf (setting [1]) and on c-Raf (setting [2]) was 100 to 1000 nM in each case.
On to `O=C(Nc1nc2ccc(C3(O)c4ccccc4C(=O)N3c3cccc(Cl)c3F)cc2[nH]1)OCCN1C(=O)CCC1=O` (stereo not shown) [Entry 324, 2-(2,5-dioxopyrrolidin-1-yl)ethyl {6-[2-(3-chloro-2-fluorophenyl)-1-hydroxy-3-oxo-2,3-dihydro-1H-isoindol-1-yl]-1H-benzimidazol-2-yl}carbamate], for which the IC50 on B-Raf (setting [1]) and at c-Raf (setting [2]) was below 100 nM in each case.

The record behind these values is patent publication US7846959B2, “Raf modulators and methods of use” (Exelixis, Inc., priority 2004, dated 2010).
